ChEMBL document CHEMBL1123731, “Synthesis and antiarrhythmic properties of novel 3-selena-7-azabicyclo[3.3.1]nonanes and derivatives. Single-crystal X-ray diffraction analysis of 7-benzyl-3-selena-7-azabicyclo[3.3.1]nonan-9-one and 7-benzyl-3-selena-7-azabicyclo[3.3.1]nonane hydroperchlorate” (1987)
Values joined by “and” are separate entries in the source; they are usually repeats but may differ in a detail not shown here. Equal entries are not always repeated. Active and inactive are the calls of the source. The calls are words filed in the database; no cut-off is given here.

Assays:
Canis familiaris [1] = organism: Canis familiaris; assay: Relative effect on slowing of ventricular tachycardia in dogs; slowing of VT; type: functional, organism-based; details: Canis lupus familiaris; Cardiac ventricle
Canis familiaris [2] = assay: Tested for Norman sinus rhythm in dogs at a dose of 6 mg/kg Expt-1; type: functional, Canis lupus familiaris
Canis familiaris [3] = organism: Canis familiaris; assay: Relative effect on mean blood pressure in dogs; NC=no change; type: functional, organism-based; details: Canis lupus familiaris
Canis familiaris [4] = assay: Tested for mean blood pressure without ventricular tachycardia in dogs at a dose of 6 mg/kg Expt-2; type: functional, Canis lupus familiaris
Canis familiaris [5] = assay: Tested for mean blood pressure with ventricular tachycardia in dogs at a dose of 3 mg/kg Expt-2; type: functional, Canis lupus familiaris
Canis familiaris [6] = organism: Canis familiaris; assay: Relative effect on normal sinus rate in dogs; NC=no change; type: functional, organism-based; details: Canis lupus familiaris
Canis familiaris [7] = assay: Tested for Norman sinus rhythm in dogs at a dose of 6 mg/kg Expt-2; type: functional, Canis lupus familiaris
Canis familiaris [8] = assay: Tested for mean blood pressure with ventricular tachycardia in dogs at a dose of 6 mg/kg Expt-2; type: functional, Canis lupus familiaris
Canis familiaris [9] = assay: Tested for Sustained ventricular tachycardia in dogs at a dose of 6 mg/kg Expt-2; type: functional, Canis lupus familiaris, Cardiac ventricle
Canis familiaris [10] = assay: Tested for Norman sinus rhythm in dogs at a dose of 3 mg/kg Expt-2; type: functional, Canis lupus familiaris
Canis familiaris [11] = assay: Tested for mean blood pressure with ventricular tachycardia in dogs at a dose of 6 mg/kg Expt-1; type: functional, Canis lupus familiaris
Canis familiaris [12] = assay: Tested for Sustained ventricular tachycardia in dogs at a dose of 6 mg/kg Expt-1; type: functional, Canis lupus familiaris, Cardiac ventricle
Canis familiaris [13] = organism: Canis familiaris; assay: Relative effect on abolition of ventricular tachycardia in dogs; no abolition of VT; type: functional, organism-based; details: Canis lupus familiaris; Cardiac ventricle
Canis familiaris [14] = assay: Tested for Norman sinus rhythm in dogs at a dose of 3 mg/kg Expt-1; type: functional, Canis lupus familiaris
Canis familiaris [15] = assay: Tested for mean blood pressure without ventricular tachycardia in dogs at a dose of 6 mg/kg Expt-1; type: functional, Canis lupus familiaris
Canis familiaris [16] = organism: Canis familiaris; assay: Relative effect on exacerbation of ventricular tachycardia in dogs; exacerbation of VT; type: functional, organism-based; details: Canis lupus familiaris; Cardiac ventricle
Canis familiaris [17] = assay: Tested for mean blood pressure without ventricular tachycardia in dogs at a dose of 3 mg/kg Expt-2; type: functional, Canis lupus familiaris
Canis familiaris [18] = assay: Tested for Sustained ventricular tachycardia in dogs at a dose of 3 mg/kg Expt-2; type: functional, Canis lupus familiaris, Cardiac ventricle
Canis familiaris [19] = assay: Tested for Sustained ventricular tachycardia in dogs at a dose of 3 mg/kg Expt-1; type: functional, Canis lupus familiaris, Cardiac ventricle
Canis familiaris [20] = assay: Tested for mean blood pressure without ventricular tachycardia in dogs at a dose of 3 mg/kg Expt-1; type: functional, Canis lupus familiaris
Canis familiaris [21] = organism: Canis familiaris; assay: Relative effect on normal sinus rate in dogs;Slight increase; type: functional, organism-based; details: Canis lupus familiaris
Canis familiaris [22] = organism: Canis familiaris; assay: Relative effect on mean blood pressure in dogs;NC=no change in mean BP; type: functional, organism-based; details: Canis lupus familiaris
Canis familiaris [23] = organism: Canis familiaris; assay: Relative effect on mean blood pressure in dogs; Moderate change in mean BP; type: functional, organism-based; details: Canis lupus familiaris
Canis familiaris [24] = organism: Canis familiaris; assay: Relative effect on normal sinus rate in dogs;Slight decrease; type: functional, organism-based; details: Canis lupus familiaris
Canis familiaris [25] = organism: Canis familiaris; assay: Relative effect on abolition of ventricular tachycardia in dogs; type: functional, organism-based; details: Canis lupus familiaris; Cardiac ventricle
Canis familiaris [26] = organism: Canis familiaris; assay: Relative effect on exacerbation of ventricular tachycardia in dogs; Exacerbation of VT present; type: functional, organism-based; details: Canis lupus familiaris; Cardiac ventricle
Canis familiaris [27] = assay: Tested for Norman sinus rhythm in dogs at a dose of 6 mg/kg expt-2; type: functional, Canis lupus familiaris
Canis familiaris [28] = assay: Tested for Norman sinus rhythm in dogs at a dose of 3 mg/kg expt-1; type: functional, Canis lupus familiaris
Canis familiaris [29] = assay: Tested for mean blood pressure with ventricular tachycardia in dogs at a dose of 6 mg/kg expt-2; type: functional, Canis lupus familiaris
Canis familiaris [30] = assay: Tested for mean blood pressure without ventricular tachycardia in dogs at a dose of 6 mg/kg expt-2; type: functional, Canis lupus familiaris
Canis familiaris [31] = assay: Tested for mean blood pressure with ventricular tachycardia in dogs at a dose of 3 mg/kg expt-1; type: functional, Canis lupus familiaris
Canis familiaris [32] = assay: Tested for mean blood pressure without ventricular tachycardia in dogs at a dose of 3 mg/kg expt-2; type: functional, Canis lupus familiaris
Canis familiaris [33] = assay: Tested for mean blood pressure without ventricular tachycardia in dogs at a dose of 3 mg/kg expt-1; type: functional, Canis lupus familiaris
Canis familiaris [34] = assay: Tested for Norman sinus rhythm in dogs at a dose of 6 mg/kg expt-1; type: functional, Canis lupus familiaris
Canis familiaris [35] = assay: Tested for Norman sinus rhythm in dogs at a dose of 3 mg/kg expt-2; type: functional, Canis lupus familiaris
Canis familiaris [36] = organism: Canis familiaris; assay: Relative effect on mean blood pressure in dogs;NC = no change in mean BP; type: functional, organism-based; details: Canis lupus familiaris
Canis familiaris [37] = organism: Canis familiaris; assay: Relative effect on normal sinus rate in dogs;NC =no change in normal sinus rate.; type: functional, organism-based; details: Canis lupus familiaris
Canis familiaris [38] = assay: Tested for mean blood pressure without ventricular tachycardia in dogs at a dose of 6 mg/kg expt-1; type: functional, Canis lupus familiaris
Canis familiaris [39] = organism: Canis familiaris; assay: Relative effect on slowing of ventricular tachycardia in dogs;slowing of VT present; type: functional, organism-based; details: Canis lupus familiaris; Cardiac ventricle
Canis familiaris [40] = assay: Tested for mean blood pressure with ventricular tachycardia in dogs at a dose of 6 mg/kg expt-1; type: functional, Canis lupus familiaris
Canis familiaris [41] = assay: Tested for mean blood pressure with ventricular tachycardia in dogs at a dose of 3 mg/kg expt-2; type: functional, Canis lupus familiaris
Canis familiaris [42] = organism: Canis familiaris; assay: Relative effect on exacerbation of ventricular tachycardia in dogs; No exacerbation of VT; type: functional, organism-based; details: Canis lupus familiaris; Cardiac ventricle
Canis familiaris [43] = assay: Tested for Norman sinus rhythm in dogs at a dose of 3 mg/kg; type: functional, Canis lupus familiaris
Canis familiaris [44] = assay: Tested for mean blood pressure without ventricular tachycardia in dogs at a dose of 6 mg/kg; type: functional, Canis lupus familiaris
Canis familiaris [45] = assay: Tested for mean blood pressure without ventricular tachycardia in dogs at a dose of 3 mg/kg; type: functional, Canis lupus familiaris
Canis familiaris [46] = organism: Canis familiaris; assay: Relative effect on abolition of ventricular tachycardia in dogs;abolition of VT; type: functional, organism-based; details: Canis lupus familiaris; Cardiac ventricle
Canis familiaris [47] = assay: Relative effect on mean blood pressure in dogs; Slight 8% increase im mean BP; type: functional, organism-based; details: Canis lupus familiaris
Canis familiaris [48] = assay: Tested for Norman sinus rhythm in dogs at a dose of 6 mg/kg; type: functional, Canis lupus familiaris; set-up: unit not given beside the values
Canis familiaris [49] = organism: Canis familiaris; assay: Relative effect on abolition of ventricular tachycardia in dogs; abolition of VT; type: functional, organism-based; details: Canis lupus familiaris; Cardiac ventricle
Canis familiaris [50] = organism: Canis familiaris; assay: Relative effect on normal sinus rate in dogs;NC=no change; type: functional, organism-based; details: Canis lupus familiaris
Canis familiaris [51] = organism: Canis familiaris; assay: Relative effect on mean blood pressure in dogs; moderate increase by 16% in mean BP; type: functional, organism-based; details: Canis lupus familiaris
Canis familiaris [52] = organism: Canis familiaris; assay: Relative effect on exacerbation of ventricular tachycardia in dogs; no exacerbation of VT; type: functional, organism-based; details: Canis lupus familiaris; Cardiac ventricle
Canis familiaris [53] = assay: Tested for mean blood pressure without ventricular tachycardia in dogs at a dose of 6 mg/kg expt-3; type: functional, Canis lupus familiaris
Canis familiaris [54] = assay: Tested for mean blood pressure without ventricular tachycardia in dogs at a dose of 3 mg/kg expt-3; type: functional, Canis lupus familiaris
Canis familiaris [55] = assay: Tested for Norman sinus rhythm in dogs at a dose of 3 mg/kg Expt-3; type: functional, Canis lupus familiaris

SMILES	Effect (Canis familiaris [1])	NSR (Canis familiaris [2])	MBP (Canis familiaris [4])	MBP (Canis familiaris [5])	NSR (Canis familiaris [7])	MBP (Canis familiaris [8])	Activity (Canis familiaris [9])	NSR (Canis familiaris [10])	Effect (Canis familiaris [13])	NSR (Canis familiaris [14])	MBP (Canis familiaris [15])	Effect (Canis familiaris [16])	MBP (Canis familiaris [17])	Activity (Canis familiaris [18])	MBP (Canis familiaris [20])	MBP (Canis familiaris [30])	MBP (Canis familiaris [32])	MBP (Canis familiaris [33])	Effect (Canis familiaris [37])	MBP (Canis familiaris [38])	other results
OC1(O)C2C[Se]CC1CN(Cc1ccccc1)C2	exacerbation of VT	155	130	40	150	60	255 beats min-1	155	No exacerbation	150	125	exacerbation of VT	130	300 beats min-1	125						Effect (Canis familiaris [3]): inactive; Effect (Canis familiaris [6]): inactive; MBP (Canis familiaris [11]): 70; Activity (Canis familiaris [12]): 320 beats min-1; Activity (Canis familiaris [19]): 280 beats min-1
c1ccc([C@H]2N[C@@H](c3ccccc3)C3C[Se]CC2C3)cc1	exacerbation of VT	145	80	30	140	20	280 beats min-1	150		150	125	exacerbation of VT	82	270 beats min-1	125						Effect (Canis familiaris [21]): Slight; Effect (Canis familiaris [22]): No change; Effect (Canis familiaris [23]): mod; Effect (Canis familiaris [24]): Slight; Effect (Canis familiaris [25]): exacerbation of VT
CCN(CC)CC(=O)Nc1c(C)cccc1C [LIDOCAINE]									inactive							72	70	110	inactive	112	Effect (Canis familiaris [26]): Active; NSR (Canis familiaris [27]): 150; NSR (Canis familiaris [28]): 165; MBP (Canis familiaris [29]): 52; MBP (Canis familiaris [31]): 40; NSR (Canis familiaris [34]): 160; NSR (Canis familiaris [35]): 150; Effect (Canis familiaris [36]): inactive; Effect (Canis familiaris [39]): Active; MBP (Canis familiaris [40]): 40; MBP (Canis familiaris [41]): 75
c1ccc(CN2CC3C[Se]CC(C3)C2)cc1																			No change		Effect (Canis familiaris [42]): No exacerbation; NSR (Canis familiaris [43]): 160; MBP (Canis familiaris [44]): 125; MBP (Canis familiaris [45]): 126; Effect (Canis familiaris [46]): abolition of ventricular tachycardia; Effect (Canis familiaris [47]): Slight; NSR (Canis familiaris [48]): 160
c1ccc(CCN2CC3C[Se]CC(C3)C2)cc1								150		168						150	85	128		125	Effect (Canis familiaris [49]): abolition of ventricular tachycardia; Effect (Canis familiaris [50]): inactive; Effect (Canis familiaris [51]): mod; Effect (Canis familiaris [52]): No exacerbation; MBP (Canis familiaris [53]): 85; MBP (Canis familiaris [54]): 150; NSR (Canis familiaris [48]; 6 mg/kg): 165 and 150 and 155; NSR (Canis familiaris [55]): 155
